Values quoted from earlier work in US20230321008A1, “INHIBITORS OF ACID SPHINGOMYELINASE FOR PREVENTING AND TREATING THE COVID-19 DISEASE” (priority 2020, published 2023).

Biological target: T1, acid sphingomyelinase (ASM) (Homo sapiens, UniProt P17405)
T1 sequence (P17405 47-631): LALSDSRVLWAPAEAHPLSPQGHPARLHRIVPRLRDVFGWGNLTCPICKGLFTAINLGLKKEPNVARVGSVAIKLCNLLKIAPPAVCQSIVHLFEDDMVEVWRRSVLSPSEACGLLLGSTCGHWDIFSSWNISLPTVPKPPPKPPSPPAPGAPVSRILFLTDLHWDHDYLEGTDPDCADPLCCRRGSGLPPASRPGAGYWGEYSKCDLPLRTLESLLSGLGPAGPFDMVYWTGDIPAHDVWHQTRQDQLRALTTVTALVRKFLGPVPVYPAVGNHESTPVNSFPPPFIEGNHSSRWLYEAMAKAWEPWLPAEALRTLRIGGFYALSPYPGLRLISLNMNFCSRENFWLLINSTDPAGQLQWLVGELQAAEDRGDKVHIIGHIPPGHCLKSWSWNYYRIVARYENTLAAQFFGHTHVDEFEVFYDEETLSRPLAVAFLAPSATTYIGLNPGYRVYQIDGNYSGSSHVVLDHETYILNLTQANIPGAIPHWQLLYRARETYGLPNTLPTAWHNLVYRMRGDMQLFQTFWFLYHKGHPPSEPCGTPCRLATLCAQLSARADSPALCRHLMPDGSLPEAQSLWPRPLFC
Details: cited from earlier work

COc1ccccc1OCCNCC(O)COc1cccc2[nH]c3ccccc3c12 (centres unmarked) [Carvedilol, carvedilol]
In vitro inhibition of acid sphingomyelinase (in words): in vitro inhibit acid sphingomyelinase with varying degrees

CN(C)CC/C=C1/c2ccccc2Sc2ccc(Cl)cc21 [Chlorprothixene]
In vitro inhibition of acid sphingomyelinase (in words): in vitro inhibit acid sphingomyelinase with varying degrees

CN(C)CCCN1c2ccccc2CCc2ccc(Cl)cc21 [Clomipramine, clomipramine]
In vitro inhibition of acid sphingomyelinase (in words): in vitro inhibit acid sphingomyelinase with varying degrees

OCCN1CCN(CC/C=C2/c3ccccc3Sc3ccc(C(F)(F)F)cc32)CC1 [Flupenthixol]
In vitro inhibition of acid sphingomyelinase (in words): in vitro inhibit acid sphingomyelinase with varying degrees

OCCN1CCN(CCCN2c3ccccc3Sc3ccc(C(F)(F)F)cc32)CC1 [Fluphenazine]
In vitro inhibition of acid sphingomyelinase (in words): in vitro inhibit acid sphingomyelinase with varying degrees

OC1(c2ccc(Cl)c(C(F)(F)F)c2)CCN(CCCC(c2ccc(F)cc2)c2ccc(F)cc2)CC1 [Penfluridol]
In vitro inhibition of acid sphingomyelinase (in words): in vitro inhibit acid sphingomyelinase with varying degrees

OCCN1CCN(CCCN2c3ccccc3Sc3ccc(Cl)cc32)CC1 [Perphenazine]
In vitro inhibition of acid sphingomyelinase (in words): in vitro inhibit acid sphingomyelinase with varying degrees

CN(C)CCCN1c2ccccc2Sc2ccccc21 [Promazine]
In vitro inhibition of acid sphingomyelinase (in words): in vitro inhibit acid sphingomyelinase with varying degrees

O=C1NCCN1CCN1CCC(c2cn(-c3ccc(F)cc3)c3ccc(Cl)cc23)CC1 [Sertindole]
In vitro inhibition of acid sphingomyelinase (in words): in vitro inhibit acid sphingomyelinase with varying degrees

CSc1ccc2c(c1)N(CCC1CCCCN1C)c1ccccc1S2 (centres unmarked) [Thioridazin]
In vitro inhibition of acid sphingomyelinase (in words): in vitro inhibit acid sphingomyelinase with varying degrees

CN1CCN(CCCN2c3ccccc3Sc3ccc(C(F)(F)F)cc32)CC1 [Trifluoperazine]
In vitro inhibition of acid sphingomyelinase (in words): in vitro inhibit acid sphingomyelinase with varying degrees

CN(C)CCCN1c2ccccc2Sc2ccc(C(F)(F)F)cc21 [Triflupromazine]
In vitro inhibition of acid sphingomyelinase (in words): in vitro inhibit acid sphingomyelinase with varying degrees

CCN(CCCc1ccccc1)CCCc1ccccc1 [alverine]
In vitro inhibition of acid sphingomyelinase (in words): in vitro inhibit acid sphingomyelinase with varying degrees

CCN(CC)CCCN(c1ccccc1)C1Cc2ccccc2C1 [aprindine]
In vitro inhibition of acid sphingomyelinase (in words): in vitro inhibit acid sphingomyelinase with varying degrees

COc1ccc(CCN2CCC(Nc3nc4ccccc4n3Cc3ccc(F)cc3)CC2)cc1 [astemizole]
In vitro inhibition of acid sphingomyelinase (in words): in vitro inhibit acid sphingomyelinase with varying degrees

CN1[C@@H]2CC[C@H]1C[C@@H](OC(c1ccccc1)c1ccccc1)C2 [benztropine]
In vitro inhibition of acid sphingomyelinase (in words): in vitro inhibit acid sphingomyelinase with varying degrees

CC(C)COCC(CN(Cc1ccccc1)c1ccccc1)N1CCCC1 (centres unmarked) [bepridil]
In vitro inhibition of acid sphingomyelinase (in words): in vitro inhibit acid sphingomyelinase with varying degrees

OC(CCN1CCCCC1)(c1ccccc1)C1CC2C=CC1C2 (centres unmarked) [biperidene]
In vitro inhibition of acid sphingomyelinase (in words): in vitro inhibit acid sphingomyelinase with varying degrees

CCN(CC)CCNC(C(=O)OCCC(C)C)c1ccccc1 (centres unmarked) [camylofin]
In vitro inhibition of acid sphingomyelinase (in words): in vitro inhibit acid sphingomyelinase with varying degrees

CC(C)/N=c1\cc2n(-c3ccc(Cl)cc3)c3ccccc3nc-2cc1Nc1ccc(Cl)cc1 [clofazimine]
In vitro inhibition of acid sphingomyelinase (in words): in vitro inhibit acid sphingomyelinase with varying degrees

Clc1ccc(C(OCCN2CCCCC2)c2ccccc2)cc1 (centres unmarked) [cloperastine]
In vitro inhibition of acid sphingomyelinase (in words): in vitro inhibit acid sphingomyelinase with varying degrees

C[C@H]1[C@H]2CC[C@H]3[C@@H]4CC=C5C[C@@H](N(C)C)CC[C@]5(C)[C@H]4CC[C@]23CN1C [conessine]
In vitro inhibition of acid sphingomyelinase (in words): in vitro inhibit acid sphingomyelinase with varying degrees

CN(C)CCC=C1c2ccccc2C=Cc2ccccc21 [cyclobenzaprine]
In vitro inhibition of acid sphingomyelinase (in words): in vitro inhibit acid sphingomyelinase with varying degrees

COc1cc(C(=O)OCCCN2CCCN(CCCOC(=O)c3cc(OC)c(OC)c(OC)c3)CC2)cc(OC)c1OC [dilazep]
In vitro inhibition of acid sphingomyelinase (in words): in vitro inhibit acid sphingomyelinase with varying degrees

CN(C)CCC=C1c2ccccc2COc2ccccc21 [doxepin]
In vitro inhibition of acid sphingomyelinase (in words): in vitro inhibit acid sphingomyelinase with varying degrees

CC[C@H]1CN2CCc3cc(OC)c(OC)cc3[C@@H]2C[C@@H]1C[C@H]1NCCc2cc(OC)c(OC)cc21 [emetine]
In vitro inhibition of acid sphingomyelinase (in words): in vitro inhibit acid sphingomyelinase with varying degrees

CC(NCCC(c1ccccc1)c1ccccc1)c1ccccc1 (centres unmarked) [fendiline]
In vitro inhibition of acid sphingomyelinase (in words): in vitro inhibit acid sphingomyelinase with varying degrees

Fc1ccc(C(c2ccc(F)cc2)N2CCN(C/C=C/c3ccccc3)CC2)cc1 [flunarizine]
In vitro inhibition of acid sphingomyelinase (in words): in vitro inhibit acid sphingomyelinase with varying degrees

CN(CCCN1c2ccccc2CCc2ccccc21)CC(=O)c1ccc(Cl)cc1 [lofepramine]
In vitro inhibition of acid sphingomyelinase (in words): in vitro inhibit acid sphingomyelinase with varying degrees

CCN(CCCCOC(=O)c1ccc(OC)c(OC)c1)C(C)Cc1ccc(OC)cc1 (centres unmarked) [mebeverine]
In vitro inhibition of acid sphingomyelinase (in words): in vitro inhibit acid sphingomyelinase with varying degrees

CN1CCc2c(c3ccccc3n2Cc2ccccc2)C1 [mebhydrolin]
In vitro inhibition of acid sphingomyelinase (in words): in vitro inhibit acid sphingomyelinase with varying degrees

COCC(=O)O[C@]1(CCN(C)CCCc2nc3ccccc3[nH]2)CCc2cc(F)ccc2[C@@H]1C(C)C [mibefradil]
In vitro inhibition of acid sphingomyelinase (in words): in vitro inhibit acid sphingomyelinase with varying degrees

CN1CCN2c3ncccc3Cc3ccccc3C2C1 (centres unmarked) [mirtazapine]
In vitro inhibition of acid sphingomyelinase (in words): there are discrepancies whether citalopram, venlafaxine and mirtazapine do have in vitro FIASMA effect

CNCCC=C1c2ccccc2CCc2ccccc21 [nortriptyline]
In vitro inhibition of acid sphingomyelinase (in words): in vitro inhibit acid sphingomyelinase with varying degrees

C1CCC(C(CC2CCCCN2)C2CCCCC2)CC1 (centres unmarked) [perhexiline]
In vitro inhibition of acid sphingomyelinase (in words): in vitro inhibit acid sphingomyelinase with varying degrees

CN1CCC(=C2c3ccccc3Sc3ccccc32)CC1 [pimethixene]
In vitro inhibition of acid sphingomyelinase (in words): in vitro inhibit acid sphingomyelinase with varying degrees

CCN(CC)C(C)CN1c2ccccc2Sc2ccccc21 (centres unmarked) [profenamine]
In vitro inhibition of acid sphingomyelinase (in words): in vitro inhibit acid sphingomyelinase with varying degrees

CC(CN1c2ccccc2Sc2ccccc21)N(C)C (centres unmarked) [promethazine]
In vitro inhibition of acid sphingomyelinase (in words): in vitro inhibit acid sphingomyelinase with varying degrees

CNCCCC1c2ccccc2C=Cc2ccccc21 [protriptyline]
In vitro inhibition of acid sphingomyelinase (in words): in vitro inhibit acid sphingomyelinase with varying degrees

CCN(CC)CCCC(C)Nc1c2ccc(Cl)cc2nc2ccc(OC)cc12 (centres unmarked) [quinacrine]
In vitro inhibition of acid sphingomyelinase (in words): in vitro inhibit acid sphingomyelinase with varying degrees

C[C@@H]1CC[C@@]2(NC1)O[C@H]1C[C@H]3[C@@H]4CC=C5C[C@@H](O)CC[C@]5(C)[C@H]4CC[C@]3(C)[C@H]1[C@@H]2C [solasodine]
In vitro inhibition of acid sphingomyelinase (in words): in vitro inhibit acid sphingomyelinase with varying degrees

CCCCCCCCNC(C)C(O)c1ccc(SC(C)C)cc1 (centres unmarked) [suloctidil]
In vitro inhibition of acid sphingomyelinase (in words): in vitro inhibit acid sphingomyelinase with varying degrees

CC/C(=C(\c1ccccc1)c1ccc(OCCN(C)C)cc1)c1ccccc1 [tamoxifen]
In vitro inhibition of acid sphingomyelinase (in words): in vitro inhibit acid sphingomyelinase with varying degrees

CC(C)(C)c1ccc(C(O)CCCN2CCC(C(O)(c3ccccc3)c3ccccc3)CC2)cc1 (centres unmarked) [terfenadine]
In vitro inhibition of acid sphingomyelinase (in words): in vitro inhibit acid sphingomyelinase with varying degrees

C[C@H]1CC[C@]2(NC1)O[C@H]1C[C@H]3[C@@H]4CC[C@H]5C[C@@H](O)CC[C@]5(C)[C@H]4CC[C@]3(C)[C@H]1[C@@H]2C [tomatidine]
In vitro inhibition of acid sphingomyelinase (in words): in vitro inhibit acid sphingomyelinase with varying degrees

CC(CN(C)C)CN1c2ccccc2CCc2ccccc21 (centres unmarked) [trimipramine]
In vitro inhibition of acid sphingomyelinase (in words): in vitro inhibit acid sphingomyelinase with varying degrees

COc1ccc(C(CN(C)C)C2(O)CCCCC2)cc1 (centres unmarked) [venlafaxine]
In vitro inhibition of acid sphingomyelinase (in words): there are discrepancies whether citalopram, venlafaxine and mirtazapine do have in vitro FIASMA effect
